Reference: article PMC11642486 (International Journal of Molecular Sciences, 2024)
pIC50: −log10 of the molar value. Structures can show the parent of a compound that is named as a salt. Where two headings read alike, the source gives them in different places.

Tests used:
[1] = system: Primary hippocampal neurons; test: Cell viability assay (CellTiter-Glo) in neurons; type: cell-based, Wistar rats; details: for pIC50: concentration diminishing cell viability by 50% vs vehicle
Protocol: Cell viability was measured at 24, 48, and 72 h of treatment with different drug concentration ranges. For each cellular type, we determined the half-maximal inhibitory concentration (IC50) of each drug.
(§1) Primary hippocampal neurons were obtained from Wistar rats on embryonic day 18. Briefly, embryos were removed from the womb under sterile conditions and decapitated to dissect the brains. Hippocampi were isolated at 4 °C in Hank’s balanced salt solution (HBSS) without calcium and magnesium, supplemented with 10 mM HEPES buffered saline and 100 U/mL of penicillin-streptomycin. The hippocampi were mechanically disaggregated using fire-polished pipettes and plated for 2–4 h in neuronal plating medium composed of minimum essential medium (MEM) enriched with 0.6% D-glucose and 10% horse serum. Neuronal plating medium was replaced by neurobasal medium supplemented with 1X B-27 and 2 mM L-glutamine. Neurons were grown for 7 days prior to the experiments. For the microglial cells, we used the BV-2 immortalized murine cell line. Microglial cells were cultured in Dulbecco’s modified Eagle medium (DMEM) with 4.5 g/L D-glucose, 2 mM L-glutamine, 100 U/mL of penicillin-streptomycin, and 10% heat-inactivated fetal bovine serum. Cells were maintained at 37 °C in a humidified incubator with 5% CO2. All culture media were purchased from Thermo Fisher Scientific (Waltham, MA, USA).
(§2) Neurons and microglia were both seeded at a density of 10,000 cells/well in 96-well plates previously treated with 0.1 mg/mL of poly-L-lysine (Sigma-Aldrich). […] Cell viability was determined at 24, 48, and 72 h. The percentage of viable cells was quantified using the CellTiter-Glo® Luminescent Cell Viability Assay (Promega Biotech Ibérica, Madrid, Spain) following the instructions by the manufacturer. The […] of the cell culture media alone was subtracted as the background from all readings. Cell viability in the drug-treated cells was normalized to their respective vehicle controls. Experiments were repeated three times, each condition in triplicate.
(§3) Statistical analysis was performed using Prism 8 software (GraphPad, Boston, MA, USA). For the cell viability assays, a linear regression analysis was made with logarithmic transformation of the drug concentrations in the X-axis. The coefficient of determination (R²) was calculated as a measurement of the adjustment of the data to the regression model. The Mann–Whitney test was used to compare two different conditions. The Kruskal–Wallis test was used to compare the different concentrations of each drug against the vehicle or LPS. Statistical significance was established at p < 0.05.

[2] = system: BV-2 immortalized murine cell line (microglia); test: Cell viability assay (CellTiter-Glo) in microglia; type: cell-based
Protocol: Cell viability was measured at 24, 48, and 72 h of treatment with different drug concentration ranges. For each cellular type, we determined the half-maximal inhibitory concentration (IC50) of each drug. In neurons, as a non-proliferative primary culture, the IC50 was defined as the drug concentration able to diminish cell viability by 50% with respect to the vehicle-treated control. In microglia, as a proliferative cell line, the IC50 was defined as the drug concentration able of inhibiting by 50% cellular proliferation with respect to the vehicle-treated control.
as §1, §2, §3

neurons = test: RNA-sequencing of drug-treated neurons; type: cell-based, rat
[3] = system: LPS-activated microglia cells; test: RNA-sequencing of LPS-activated microglia cells treated with drug; type: cell-based, mouse; details: 30 µM DMF
Protocol: Microglia cells were activated with LPS and treated with the same drug concentrations at the same timepoints. Each experiment was repeated three times. RNA was extracted using the Maxwell® 16 LEV simplyRNA Cells Kit and the robotic platform Maxwell® 16 (both from Promega Biotech Ibérica) following the manufacturer’s instructions. RNA-sequencing was performed as previously described using the NovaSeq 6000 Sequencing System (Illumina, San Diego, CA, USA) by pair-end (150 x 2) and at a sequencing depth of 20 million reads per sample [60]. FastQC v0.12.1 and Cutadapt v4.4 were used for quality control of the raw reads and removal of the adapter sequences, respectively. Trimmomatic v0.39 was employed to further select trimmed reads larger than 20 nucleotides and with a sequencing quality score greater than 30 [62]. Reads were aligned with HISAT2 v2.2.1 to the mouse or rat genome assemblies GRCm39 and mRatBN7.2, respectively. Mapped reads were annotated using Ensembl gene annotation v110 for the mouse genome and v111 for the rat genome and counts quantified using HTSeq v2.0.3 [63]. Gene counts were analyzed using principal components with custom R scripts (R version 4.3.1). DESeq2 v1.40.2 was used for differential expression analysis.

Nrf2 = Nrf2 nuclear translocation by immunofluorescence in neurons; type: cell-based, Wistar rats; details: for lowest concentration inducing nuclear translocation (activation) of Nrf2: significant vs vehicle
Protocol: as §1
For the immunofluorescence experiments, neurons and microglia were directly seeded on glass coverslips previously treated with 1 mg/mL of poly-L-lysine. […] After the drug treatments, the cells were fixed on ice with 4% paraformaldehyde for 25 min and then permeabilized and blocked using 0.1% Triton X-100 (10 min) and 5% BSA (30 min), respectively. Cells were then incubated overnight with the primary antibodies and 1% BSA at 4 °C. The primary antibodies anti-Nrf2 (ab1375550) and anti-NF-kB p65 (ab16502) (both from Abcam, Cambridge, United Kingdom) were used at 1:200. After washing with PBS, cells were incubated with the fluorophore-conjugated secondary antibody anti-Rabbit IgG Alexa Fluor 488 (Thermo Fisher Scientific) at 1:500 for 1 h at room temperature. Cells were counterstained with the TO-PRO fluorescent dye (Thermo Fisher Scientific) to visualize the cell nuclei. Images were captured using the confocal microscope Leica TCS SP5 (Leica Microsystems, Wetzlar, Germany). For each experimental condition, five random fields were captured and analyzed using ImageJ software (National Institutes of Health, Maryland, DC, USA). Activation of Nrf2 or NF-kB was defined as nuclear translocation, measured by the increase in the mean fluorescence intensity (MFI) in the nucleus. Each experiment was repeated three times.

[4] = 4 h, 30 µM DMF, 30 µM MMF, 6 µM CBD
[5] = 24 h, 30 µM DMF, 30 µM MMF, 6 µM CBD
[6] = Rattus norvegicus, Hippocampal neuron, 24 h, neurons, 24 h, read-out: IC50 (cell viability)
[7] = Rattus norvegicus, Hippocampal neuron, 48 h, neurons, 48 h, read-out: IC50 (cell viability)
[8] = Rattus norvegicus, Hippocampal neuron, 72 h, neurons, 72 h, read-out: IC50 (cell viability)
[9] = neurons, 24 h, read-out: IC50 (cell viability)
[10] = neurons, 72 h, read-out: IC50 (cell viability)
[11] = Mus musculus, Microglia, 24 h, microglia, 24 h, concentration inhibiting cellular proliferation by 50% vs vehicle, read-out: IC50 (cell viability)
[12] = Mus musculus, Microglia, 48 h, microglia, 48 h, concentration inhibiting cellular proliferation by 50% vs vehicle, read-out: IC50 (cell viability)
[13] = Mus musculus, Microglia, 72 h, microglia, 72 h, concentration inhibiting cellular proliferation by 50% vs vehicle, read-out: IC50 (cell viability)

Row | SMILES | number of differentially expressed genes (DEGs) vs vehicle (neurons; [4]) | number of downregulated DEGs vs vehicle (neurons; 24 h, 30 µM DMF, 6 µM CBD) | number of upregulated DEGs vs vehicle (neurons; 24 h, 30 µM DMF, 6 µM CBD) | number of differentially expressed genes (DEGs) vs vehicle (neurons; [5]) | number of DEGs vs cells treated with LPS alone ([3]; 4 h, 30 µM MMF, 6 µM CBD) | number of downregulated DEGs vs LPS alone ([3]; 24 h, 6 µM CBD) | number of upregulated DEGs vs LPS alone ([3]; 24 h, 6 µM CBD) | number of DEGs vs cells treated with LPS alone ([3]; 24 h, 30 µM MMF, 6 µM CBD) | lowest concentration inducing nuclear translocation (activation) of Nrf2 (Nrf2; 4 h treatment) [µM] | pIC50 [1, 6] | pIC50 [1, 7] | pIC50 [1, 8] | pIC50 [1, 9] | pIC50 [1, 10] | pIC50 [2, 11] | pIC50 [2, 12] | pIC50 [2, 13] | Nqo1 expression vs vehicle (neurons; 24 h, 30 µM DMF, 30 µM MMF) [log2FC] | number of downregulated DEGs vs LPS alone ([3]; 4 h, 30 µM MMF) | number of upregulated DEGs vs LPS alone ([3]; 4 h, 30 µM MMF) | other results
1 | C=C(C)[C@@H]1CCC(C)=C[C@H]1c1c(O)cc(CCCCC)cc1O [CBD, cannabidiol] | four | 21 | 12 | 33 | 2 | 1265 | 1345 | 2610 | 5 | – | – | – | – | – | – | – | – | – | – | – | pIC50 ([1]; Rattus norvegicus, Hippocampal neuron, 24 h, read-out: IC50 (cell viability), neurons, 24 h): 4.82; pIC50 ([1]; Rattus norvegicus, Hippocampal neuron, 48 h, read-out: IC50 (cell viability), neurons, 48 h): 4.87; pIC50 ([1]; Rattus norvegicus, Hippocampal neuron, 72 h, read-out: IC50 (cell viability), neurons, 72 h): 4.89; decrease in cell viability ([1]; neurons, 10 µM): around 20%; pIC50 ([1]; read-out: IC50 (cell viability), neurons, 24 h): 4.82; pIC50 ([1]; read-out: IC50 (cell viability), neurons, 72 h): 4.89; pIC50 ([2]; Mus musculus, Microglia, 24 h, read-out: IC50 (cell viability), microglia, 24 h, concentration inhibiting cellular proliferation by 50% vs vehicle): 4.92; pIC50 ([2]; Mus musculus, Microglia, 48 h, read-out: IC50 (cell viability), microglia, 48 h, concentration inhibiting cellular proliferation by 50% vs vehicle): 4.92; pIC50 ([2]; Mus musculus, Microglia, 72 h, read-out: IC50 (cell viability), microglia, 72 h, concentration inhibiting cellular proliferation by 50% vs vehicle): 4.93; pIC50 ([2]; Mus musculus, Microglia, 72 h, read-out: IC50 (cell viability), microglia, all of the studied timepoints (24, 48, 72 h)): ~4.92; Hmox1 expression vs vehicle (neurons; 24 h, 6 µM CBD): 4.9 log2FC; number of DEGs with strong downregulation (fold change < −1) (neurons; 24 h, 6 µM CBD): eight; number of DEGs with strong upregulation (fold change > 1) (neurons; 24 h, 6 µM CBD): nine; Nrf2 nuclear protein levels, fold increase vs vehicle (Nrf2; 4 h, 5 µM): 4 fold; Nrf2 nuclear protein levels, fold increase vs vehicle (Nrf2; 4 h, 6 µM): 10 fold; Nrf2 nuclear protein levels, fold increase vs vehicle (Nrf2; 4 h, 7 µM): 10 fold; Nrf2 nuclear protein levels, fold increase vs vehicle (Nrf2; 4 h, 8 µM): 4 fold; Nrf2 nuclear protein levels, fold increase vs vehicle (Nrf2; 4 h, 10 µM): 4 fold; magnitude (peak) of Nrf2 activation, fold change of mean nuclear fluorescence intensity vs vehicle (Nrf2; 4 h treatment): 10 fold
2 | COC(=O)/C=C/C(=O)OC [DMF, Dimethyl fumarate] | 407 | 144 | 120 | 264 | 542 | 146 | 230 | 376 | 30 | 3.99 | 4.26 | 4.44 | ~4.00 | 4.44 | 4.43 | 4.39 | 4.14 | 2.3 | 340 | 202 | decrease in cell viability ([1]; neurons, 30 µM): around 20%; pIC50 ([2]; microglia, 24 h, concentration inhibiting cellular proliferation by 50% vs vehicle, read-out: IC50 (cell viability)): 4.43; pIC50 ([2]; microglia, 72 h, concentration inhibiting cellular proliferation by 50% vs vehicle, read-out: IC50 (cell viability)): 4.14; number of DEGs between 24 h and 4 h of treatment (across time) (neurons; 30 µM DMF): 1276; Hmox1 expression vs vehicle (neurons; 4 h, 30 µM DMF): 3.9 log2FC; number of downregulated DEGs vs vehicle (neurons; 4 h, 30 µM DMF): 169; number of upregulated DEGs vs vehicle (neurons; 4 h, 30 µM DMF): 238; Nfe2l2 expression vs vehicle (neurons; 24 h, 30 µM DMF): 0.94 log2Fc; number of DEGs with strong downregulation ([3]; 24 h): 67; number of DEGs with strong upregulation ([3]; 24 h): 128
3 | COC(=O)/C=C/C(=O)O [MMF, monomethyl fumarate] | did not produce any significant transcriptomic changes | – | – | three | eight | – | – | could not detect any transcriptomic changes | – | 4.17 | 4.37 | 4.25 | ~4.19 | 4.26 | 4.31 | 4.38 | 4.25 | 0.98 | three | five | pIC50 ([2]; Mus musculus, Microglia, 72 h, microglia, all of the studied timepoints (24, 48, 72 h), read-out: IC50 (cell viability)): ~4.30; Gstp1 expression vs vehicle (neurons; 24 h, 30 µM MMF): 0.66 log2FC; Nrf2 activation (nuclear translocation), result in words (Nrf2; 4 h, same concentrations as DMF (up to 30 µM)): did not observe the nuclear translocation of Nrf2
